Measured values from US20230192764A1, “NOVEL DOPAMINE PRECURSORS” (Yissum Research Development Company of the Hebrew …, priority 2018, published 2023).
Values joined by “and” are separate entries in the source; they are usually repeats but may differ in a detail not shown here. Equal entries are not always repeated.

What was measured:
[1] = tested on: human neuroblastoma cells (SH-SY5Y); assay: Viability of SH-SY5Y cells after auranofin (AuF) challenge, methylene blue staining; type: cell-based; settings: SH-SY5Y pre-treated with 5 µM AuF 30 min, washed, compound added, viability 24 h later
Experimental: Viability of cells pre-treated with 5 µM AuF for 30 min, washed and later exposed to increasing concentrations of SD-444, was determined 24 h later.
A) The anti-apoptotic activity of SD-444 was tested on human neuronal cells SH-SY5Y. The cells were challenged by auranofin (AuF) that induces cellular stress by selectively blocking the thioredoxin reductase activity.
SH-SY5Y cells were plated on 96-well plates and treated with AuF in different concentrations for 30 min. Then the cells were washed with PBS and treated as indicated. Twenty-four hours later, the cells were fixed with glutaraldehyde in final concentration of 0.5% for 10 min. Cells were washed 3 times with DDW dried overnight, and washed once with borate buffer (0.1 M, pH 8.5). The fixed cells were stained with 200 µl of 1% methylene blue dissolved in borate buffer for 1 h. After extensive washing and drying, the color was extracted with 200 µl of 0.1 M HCl for 1 h at 37° C. and absorbance was read in spectrophotometer at 630 nm.

p38MAPK phosphorylation = assay: AuF-induced phosphorylation of p38MAPK in SH-SY5Y cells, western blot; type: cell-based, human
Experimental: Cells were treated with 10 µM AuF with or without SD-444. Phosphorylation was determined by western blot analysis. The amount of each band was quantitated by densitometry and plotted with a linear regression program normalized with β catenin (b-cat).
(§1) In the assay, twenty to thirty micrograms of protein samples were loaded on 10-12% SDS-PAGE gels. The proteins were then transferred electrophoretically to nitrocellulose (Whatman, Germany). The blots were blocked by incubation for 1 h at RT in TBS-T (25 mM Tris-HCl pH 7.4, 0.9% NaCl and 0.02% Tween-20) with 4% Difco skim milk (BD, USA), and incubated over-night at 4° C. with the primary antibody: p-p38^MAPK (Thr180/Tyr182), rabbit mAb; p38, rabbit Ab.

JNK phosphorylation = assay: AuF-induced phosphorylation of JNK in SH-SY5Y cells, western blot; type: cell-based, human
Experimental: SH-SY5Y cells were treated with 10 µM AuF with or without SD-444. Phosphorylation was determined by western blot analysis. The amount of each band was quantitated by densitometry and plotted with a linear regression program normalized to total JNK.
as §1
as §1, with “1h” for “1 h”, “p-JNK^MAPK, and β-catenin.” for “p-p38^MAPK (Thr180/Tyr182), rabbit mAb; p38, rabbit Ab.”

[2] = Body weight monitoring in rotenone-treated rats; type: in vivo, Sprague Dawley rats; settings: for Weight: individual rat, listed as SD
Experimental: (§2) 1-SD (Rotenone + SD); 2 - SDA (Rotenone + SDA); 3 - Control (Rotenone); 4 -Naive. The experimental groups were comprised of 6 animals for treated groups (1-3) and 2 animals in naive group (4). Rotenone was administrated 3.0 mg/kg intraperitoneally (IP) once a day in the morning (days 1-9). SD 33 mg/kg and SDA 33 mg/kg were administrated intraperitoneally once a day in the afternoon (days 1-9).
Animals weight was measured before initiation of treatment (day 0), on days 4,7, 9 during the experiment and on termination day 11. On day 11, animals were sacrificed and brains were harvested for further histopathological analysis.
(§3) IP administration: Rotenone was administrated to groups 1-3. Rotenone was injected intraperitoneally at a dose 3.0 mg/kg once a day in the morning (days 1-9). SD and SDA was administrated both at a dose of 33 mg/kg and were injected intraperitoneally once a day in the afternoon (days 1-9). Group number 4 was untreated, and remained as a naive group.

[3] = tested on: Rotenone -induced model of Parkinson's disease (PD) in rats; assay: Rat rearing behavior (cylinder) test, rotenone model; type: in vivo, Sprague Dawley rats; settings: for Cylinder rise and touch (number of rears in 2 min): individual rat, listed as SD
Experimental: as §2
(§4) Rearing behavior, rotarod and beam walk tests were performed before initiation of treatment (day 0) as well as on days 4, 8 and 10 of the experiment.
as §3
Animals were placed in a clear glass cylinder (40 cm high and 20 cm diameter) and number of rears in 2 min was observed. Rear was considered as animals raised their hands above the shoulder and made contact with the wall of cylinder with their forelimb.

[4] = tested on: Rotenone -induced model of Parkinson's disease (PD) in rats; assay: Rotarod behavior assay, rotenone model; type: in vivo, Sprague Dawley rats; settings: for R.R (rotarod): individual rat, listed as SD
Experimental: as §2, §4, §3
The test was used to evaluate motor coordination and balance. Apparatus was set to accelerate from 4 to 40 rpm in 300 s, and animals from same cage are placed in separate lanes on rod initially rotating at 4 rpm.

[5] = tested on: Rotenone -induced model of Parkinson's disease (PD) in rats; assay: Rat beam walk test, rotenone model; type: in vivo, Sprague Dawley rats; settings: for beam end time: individual rat, listed as SD
Experimental: as §2, §4, §3
Animals were gently placed on 1 m long narrow aluminum beam facing one of the ends and allowed to walk to the end of the beam.

[6] = average n=6, day 0 (before treatment)
[7] = day 0 (before treatment), rotenone 3 mg/kg + compound 33 mg/kg IP
[8] = rats, rotenone 3.0 mg/kg IP + compound 33 mg/kg IP, days 1-9

With `CC(=O)NC(CS)C(=O)NC(Cc1cccc(O)c1O)C(=O)NC(CS)C(N)=O` (stereo not shown) [SD-444, Acetyle-Cys-2,3 dihydroxyphenylalanin-Cys- amide] the “neuronal cell-viability after AuF” value [1] was “partially restored”, the “neuronal cell-viability after AuF” value ([1]; listed as SD) was “increase viability” and the “concentration at which significant reduction in p38 activation is seen” value (p38MAPK phosphorylation; 10 µM AuF, western blot) was 30 µM. For the same compound, the “p38 phosphorylation (AuF-triggered)” value (p38MAPK phosphorylation; summary statement) was “inhibit”, the “concentration at which significant reduction in JNK activation is seen” value (JNK phosphorylation; 10 µM AuF, western blot) was 10 µM and the “JNK phosphorylation (AuF-triggered)” value (JNK phosphorylation; summary statement) was “inhibit”. The “Weight, group average” value [2, 6] was 304.83 gr, the “Weight, group average” value ([2]; average n=6, day 4) was 299.83 gr and the “Weight, group average” value ([2]; average n=6, day 7) was 294.17 gr. The “Weight, group average” value ([2]; average n=6, day 9) was 290.17 gr, the “Weight, group average” value ([2]; average n=6, day 11) was 283.17 gr and the Weight [2, 7] was 300 gr (2×) and 307 gr and 294 gr and 315 gr and 313 gr. For the same compound, the Weight ([2]; day 4, rotenone 3 mg/kg + compound 33 mg/kg IP) was 299 gr (2×) and 296 gr and 290 gr and 310 gr and 305 gr, the Weight ([2]; day 7, rotenone 3 mg/kg + compound 33 mg/kg IP) was 298 gr and 281 gr and 286 gr and 305 gr and 294 gr and 301 gr and the Weight ([2]; day 9, rotenone 3 mg/kg + compound 33 mg/kg IP) was 295 gr and 285 gr and 280 gr and 298 gr and 286 gr and 297 gr. For the same compound, the Weight ([2]; day 11, rotenone 3 mg/kg + compound 33 mg/kg IP) was 290 gr (2×) and 278 gr and 284 gr and 283 gr and 274 gr, the “Cylinder rise and touch, group average” value [3, 6] was 12.33 and the “Cylinder rise and touch, group average” value ([3]; average n=6, day 4) was 14.00. The “Cylinder rise and touch, group average” value ([3]; average n=6, day 8) was 12.33, the “Cylinder rise and touch, group average” value ([3]; average n=6, day 10) was 13.00 and the “Cylinder rise and touch (number of rears in 2 min)” value [3, 7] was 13 (3×) and 8 and 18 and 9. For the same compound, the “Cylinder rise and touch (number of rears in 2 min)” value ([3]; day 4) was 22 and 9 and 12 and 13 (2×) and 15, the “Cylinder rise and touch (number of rears in 2 min)” value ([3]; day 8) was 9 and 10 (2×) and 18 and 15 and 12 and the “Cylinder rise and touch (number of rears in 2 min)” value ([3]; day 10) was 16 and 13 and 17 and 9 and 15 and 8. For the same compound, the “Cylinder test, maintaining locomotor activity in Rotenone-treated rats” value [3, 8] was “very effective”, the “R.R (rotarod), group average” value [4, 6] was 283.33 s and the “R.R (rotarod), group average” value ([4]; average n=6, day 4) was 275.00 s. The “R.R (rotarod), group average” value ([4]; average n=6, day 8) was 256.67 s, the “R.R (rotarod), group average” value ([4]; average n=6, day 10) was 240.50 s and the “R.R (rotarod)” value [4, 7] was 274 s and 280 s and 288 s and 300 s and 291 s and 267 s. The “R.R (rotarod)” value ([4]; day 4) was 280 sec and 268 sec and 300 sec (2×) and 247 sec and 255 sec, the “R.R (rotarod)” value ([4]; day 8) was 249 s and 251 s and 282 s and 267 s and 254 s and 237 s and the “R.R (rotarod)” value ([4]; day 10) was 248 s and 255 s and 258 s and 266 s and 224 s and 192 s. For the same compound, the “rotarod test, motor dysregulation mediated by rotenone” value [4, 8] was “significantly reversed”, the “beam end time, group average” value [5, 6] was 11.33 s and the “beam end time, group average” value ([5]; average n=6, day 4) was 20.17 s. The “beam end time, group average” value ([5]; average n=6, day 8) was 22.00 s, the “beam end time, group average” value ([5]; average n=6, day 10) was 22.67 s and the beam end time [5, 7] was 10 sec (2×) and 19 sec and 5 sec and 8 sec and 16 sec. For the same compound, the beam end time ([5]; day 4) was 31 s and 13 s and 15 s and 6 s and 38 s and 18 s, the beam end time ([5]; day 8) was 23 s and 22 s and 18 s and 16 s and 21 s and 32 s and the beam end time ([5]; day 10) was 43 s and 23 s and 17 s and 12 s and 27 s and 14 s. The “Walk-beam test, reversal of rotenone induced imbalance” value [5, 8] was “very effective”.
